In patent US10670605B2, “Cysteine reactive probes and uses thereof” (The Scripps Research Institute, priority 2015, dated 2020):

Columns and labels:
Assay in all cases: Competitive isoTOP-ABPP, cell lysates
Assay type in all cases: binding
GNB2L1 C182 (P63244) = GNB2L1 C182 (P63244) (Homo sapiens, UniProt P63244); settings: for R value (DMSO/fragment): 500 μM
GSTP1 C48 (P09211) = GSTP1 C48 (P09211) (Homo sapiens, UniProt P09211)
IDH1 C269 (O75874) = IDH1 C269 (O75874) (Homo sapiens, UniProt O75874); settings: for R value (DMSO/fragment): 500 μM
PCK2 C306 (Q16822) = molecular target: T1, PCK2 C306 (Q16822) (Homo sapiens, UniProt Q16822); settings: 500 μM
T1 sequence (Q16822 33-640): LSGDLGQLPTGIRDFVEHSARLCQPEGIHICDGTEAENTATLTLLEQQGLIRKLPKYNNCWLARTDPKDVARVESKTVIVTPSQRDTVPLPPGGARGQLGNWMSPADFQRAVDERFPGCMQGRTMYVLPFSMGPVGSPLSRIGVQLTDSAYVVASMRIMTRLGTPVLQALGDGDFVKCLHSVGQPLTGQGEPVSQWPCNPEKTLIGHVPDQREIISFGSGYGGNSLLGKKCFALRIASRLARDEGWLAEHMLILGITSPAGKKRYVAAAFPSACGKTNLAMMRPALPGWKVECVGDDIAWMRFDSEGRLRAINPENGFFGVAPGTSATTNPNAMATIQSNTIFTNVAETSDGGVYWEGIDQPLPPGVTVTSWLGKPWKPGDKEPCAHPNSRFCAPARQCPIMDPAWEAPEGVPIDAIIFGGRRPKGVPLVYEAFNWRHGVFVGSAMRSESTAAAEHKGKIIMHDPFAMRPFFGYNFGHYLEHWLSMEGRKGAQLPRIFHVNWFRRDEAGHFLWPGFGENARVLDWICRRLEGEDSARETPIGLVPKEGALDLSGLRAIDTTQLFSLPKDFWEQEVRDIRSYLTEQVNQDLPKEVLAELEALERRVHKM

PDIA6 C190 (Q15084) = molecular target: T2, PDIA6 C190 (Q15084) (Homo sapiens, UniProt Q15084)
T2 sequence (Q15084 20-440): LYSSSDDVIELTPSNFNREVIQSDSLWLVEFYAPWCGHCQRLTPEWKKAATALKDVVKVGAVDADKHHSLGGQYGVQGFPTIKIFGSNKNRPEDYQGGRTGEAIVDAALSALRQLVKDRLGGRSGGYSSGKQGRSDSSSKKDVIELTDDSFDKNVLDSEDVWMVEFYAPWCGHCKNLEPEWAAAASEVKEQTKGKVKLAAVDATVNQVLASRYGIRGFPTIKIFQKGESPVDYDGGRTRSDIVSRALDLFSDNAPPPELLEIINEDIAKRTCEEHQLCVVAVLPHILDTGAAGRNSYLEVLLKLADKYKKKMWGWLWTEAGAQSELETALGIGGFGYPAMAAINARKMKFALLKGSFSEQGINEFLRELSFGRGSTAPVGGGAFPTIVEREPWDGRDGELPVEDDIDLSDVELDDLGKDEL

PDIA6 C55 (Q15084) = molecular target: T3, PDIA6 C55 (Q15084) (Homo sapiens, UniProt Q15084)
T3 sequence (Q15084 20-440): T2 sequence (Q15084 20-440)

SAMHD1 C522 (Q9Y3Z3) = SAMHD1 C522 (Q9Y3Z3) (Homo sapiens, UniProt Q9Y3Z3); settings: for isoTOP-ABPP ratio (reactivity profile), Q9Y3Z3_C522: 500 μm in-vitro ramos
SMARCC2 C145 (Q8TAQ2) = SMARCC2 C145 (Q8TAQ2) (Homo sapiens, UniProt Q8TAQ2); settings: for R value (DMSO/fragment): 500 μM; for isoTOP-ABPP ratio (reactivity profile), Q8TAQ2_C145: 500 μm in-vitro ramos
STAT3 C259 (P40763) = STAT3 C259 (P40763) (Homo sapiens, UniProt P40763); settings: for R value (DMSO/fragment): 500 μM
UBE2L3 C86 (P68036) = UBE2L3 C86 (P68036) (Homo sapiens, UniProt P68036); settings: for R value (DMSO/fragment): 500 μM; for isoTOP-ABPP ratio (reactivity profile), P68036_C86: 500 μm in-vitro ramos
XPO1 C528 (O14980) = XPO1 C528 (O14980) (Homo sapiens, UniProt O14980); settings: for isoTOP-ABPP ratio (reactivity profile), O14980_C528: 500 μm in-vitro ramos

O=C(CCl)Nc1cc(C(F)(F)F)cc(C(F)(F)F)c1 [compound 3]
R value (DMSO/fragment) (GNB2L1 C182 (P63244); in vitro, MDA-MB-231): 20.0 | R value (DMSO/fragment) (GNB2L1 C182 (P63244); invitro, ramos): 4.7 | R value (DMSO/fragment) (GSTP1 C48 (P09211); 500 μM, in vitro, MDA-MB-231): 2.9 | R value (DMSO/fragment) (GSTP1 C48 (P09211); 500 μM, invitro, ramos): 1.7 | R value (DMSO/fragment) (IDH1 C269 (O75874); in vitro, MDA-MB-231): 20.0 | R value (DMSO/fragment) (IDH1 C269 (O75874); invitro, ramos): 1.0 | R value (DMSO/fragment) (PCK2 C306 (Q16822); in vitro, MDA-MB-231): 10.6 | R value (DMSO/fragment) (PCK2 C306 (Q16822); invitro, ramos): 0.9 | R value (DMSO/fragment) (PDIA6 C190 (Q15084); 500 μM, in vitro, MDA-MB-231): 19.9 | R value (DMSO/fragment) (PDIA6 C190 (Q15084); 500 μM, invitro, ramos): 13.1 | R value (DMSO/fragment) (PDIA6 C55 (Q15084); 500 μM, in vitro, MDA-MB-231): 17.9 | R value (DMSO/fragment) (PDIA6 C55 (Q15084); 500 μM, invitro, ramos): 14.9 | R value (DMSO/fragment) (SAMHD1 C522 (Q9Y3Z3); 500 μM, in vitro, MDA-MB-231): 2.6 | R value (DMSO/fragment) (SMARCC2 C145 (Q8TAQ2); in vitro, MDA-MB-231): 9.7 | R value (DMSO/fragment) (SMARCC2 C145 (Q8TAQ2); invitro, ramos): 6.6 | R value (DMSO/fragment) (STAT3 C259 (P40763); in vitro, MDA-MB-231): 2.5 | R value (DMSO/fragment) (STAT3 C259 (P40763); invitro, ramos): 2.9 | R value (DMSO/fragment) (UBE2L3 C86 (P68036); in vitro, MDA-MB-231): 1.2 | R value (DMSO/fragment) (UBE2L3 C86 (P68036); invitro, ramos): 3.0 | R value (DMSO/fragment) (XPO1 C528 (O14980); 500 μM, in vitro, MDA-MB-231): 20.0 | R value (DMSO/fragment) (XPO1 C528 (O14980); 500 μM, invitro, ramos): 20.0

C=CC(=O)N(Cc1cccnc1)c1ccc(Oc2ccccc2)c(C(F)(F)F)c1 [compound 15]
isoTOP-ABPP ratio (reactivity profile), P63244_C182 (GNB2L1 C182 (P63244); 500 μm in-vitro ramos): 1.3 | isoTOP-ABPP ratio, P09211_C48 (GSTP1 C48 (P09211); 500 μM, invitro, 231): 2.5 | isoTOP-ABPP ratio (reactivity profile), P09211_C48 (GSTP1 C48 (P09211); 500 μm in-vitro ramos): 1.3 | isoTOP-ABPP ratio (reactivity profile), O75874_C269 (IDH1 C269 (O75874); 500 μm in-vitro ramos): 0.6 | isoTOP-ABPP ratio, Q15084_C190 (PDIA6 C190 (Q15084); 500 μM, invitro, 231): 0.9 | isoTOP-ABPP ratio (reactivity profile), Q15084_C190 (PDIA6 C190 (Q15084); 500 μm in-vitro ramos): 1.2 | isoTOP-ABPP ratio Q15084_C55 (PDIA6 C55 (Q15084); 500 μM, invitro, 231): 0.8 | isoTOP-ABPP ratio (reactivity profile), Q15084_C55 (PDIA6 C55 (Q15084); 500 μm in-vitro ramos): 1.0 | isoTOP-ABPP ratio (reactivity profile), Q9Y3Z3_C522 (SAMHD1 C522 (Q9Y3Z3)): 1.6 | isoTOP-ABPP ratio (reactivity profile), Q8TAQ2_C145 (SMARCC2 C145 (Q8TAQ2)): 1.2 | isoTOP-ABPP ratio (reactivity profile), P40763_C259 (STAT3 C259 (P40763); 500 μm in-vitro ramos): 1.9 | isoTOP-ABPP ratio (reactivity profile), P68036_C86 (UBE2L3 C86 (P68036)): 1.3 | isoTOP-ABPP ratio O14980_C528 (XPO1 C528 (O14980); 500 μM, invitro, 231): 0.8 | isoTOP-ABPP ratio (reactivity profile), O14980_C528 (XPO1 C528 (O14980)): 1.0

O=C(CCl)N1CCOCC1 [compound 22]
isoTOP-ABPP ratio (reactivity profile), P63244_C182 (GNB2L1 C182 (P63244); 500 μm in-vitro ramos_231): 1.6 | isoTOP-ABPP ratio (reactivity profile), P09211_C48 (GSTP1 C48 (P09211); 500 μm in-vitro ramos): 0.7 | isoTOP-ABPP ratio (reactivity profile), P09211_C48 (GSTP1 C48 (P09211); 500 μm in-vitro ramos_231): 0.9 | isoTOP-ABPP ratio (reactivity profile), O75874_C269 (IDH1 C269 (O75874); 500 μm in-vitro ramos_231): 1.0 | isoTOP-ABPP ratio (reactivity profile), Q15084_C190 (PDIA6 C190 (Q15084); 500 μm in-vitro ramos): 4.2 | isoTOP-ABPP ratio (reactivity profile), Q15084_C190 (PDIA6 C190 (Q15084); 500 μm in-vitro ramos_231): 2.2 | isoTOP-ABPP ratio (reactivity profile), Q15084_C55 (PDIA6 C55 (Q15084); 500 μm in-vitro ramos): 1.6 | isoTOP-ABPP ratio (reactivity profile), Q15084_C55 (PDIA6 C55 (Q15084); 500 μm in-vitro ramos_231): 2.1 | isoTOP-ABPP ratio (reactivity profile), Q9Y3Z3_C522 (SAMHD1 C522 (Q9Y3Z3)): 0.8 | isoTOP-ABPP ratio (reactivity profile), Q8TAQ2_C145 (SMARCC2 C145 (Q8TAQ2)): 1.2 | isoTOP-ABPP ratio (reactivity profile), P40763_C259 (STAT3 C259 (P40763); 500 μm in-vitro ramos_231): 2.0 | isoTOP-ABPP ratio (reactivity profile), P68036_C86 (UBE2L3 C86 (P68036)): 0.8

CC(Br)C(=O)Nc1cc(C(F)(F)F)cc(C(F)(F)F)c1 (centres unmarked) [compound 24]
isoTOP-ABPP ratio (reactivity profile), P63244_C182 (GNB2L1 C182 (P63244); 500 μm in-vitro ramos): 2.6 | isoTOP-ABPP ratio (reactivity profile), P09211_C48 (GSTP1 C48 (P09211); 500 μm in-vitro ramos): 1.6 | isoTOP-ABPP ratio (reactivity profile), O75874_C269 (IDH1 C269 (O75874); 500 μm in-vitro ramos): 0.9 | isoTOP-ABPP ratio (reactivity profile), Q15084_C190 (PDIA6 C190 (Q15084); 500 μm in-vitro ramos): 1.7 | isoTOP-ABPP ratio (reactivity profile), Q15084_C55 (PDIA6 C55 (Q15084); 500 μm in-vitro ramos): 1.3 | isoTOP-ABPP ratio (reactivity profile), Q9Y3Z3_C522 (SAMHD1 C522 (Q9Y3Z3)): 1.1 | isoTOP-ABPP ratio (reactivity profile), Q8TAQ2_C145 (SMARCC2 C145 (Q8TAQ2)): 5.4 | isoTOP-ABPP ratio (reactivity profile), P40763_C259 (STAT3 C259 (P40763); 500 μm in-vitro ramos): 1.7 | isoTOP-ABPP ratio (reactivity profile), O14980_C528 (XPO1 C528 (O14980)): 20.0
